Several values for one entry are separate records, joined by “and”; a condition that tells them apart may be missing. Identical values can stand only once. Results filed as inconclusive are left out.
Test system: nude mice, LX-1 lung xenograft intrarenal, tumor weight T/C
Assay: NCI In Vivo Anticancer Drug Screen. Data for tumor model Human Lung LX-1 Xenograft (intrarenal inoculation) in NU/NU Swiss (nude) mice
Conditions: endpoint: mean tumor weight change, higher = larger tumour
Summary of the method: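 Readout: T/C, i.e. treated-group tumor measurement over vehicle-control measurement. Mice bearing transplantable tumors were dosed with compound or vehicle.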

[1] = dose: 6.25 mg/kg/injection, schedule: Q01DX010 (sc), vehicle: Klucel (hydroxypropylcellulose) (HPC)
[2] = dose: 12.5 mg/kg/injection, schedule: Q01DX010 (sc), vehicle: Klucel (hydroxypropylcellulose) (HPC)
[3] = dose: 25.0 mg/kg/injection, schedule: Q01DX010 (sc), vehicle: Klucel (hydroxypropylcellulose) (HPC)
[4] = dose: 50.0 mg/kg/injection, schedule: Q01DX010 (sc), vehicle: saline with Tween-80
[5] = dose: 100.0 mg/kg/injection, schedule: Q01DX010 (sc), vehicle: saline with Tween-80
[6] = dose: 200.0 mg/kg/injection, schedule: Q01DX010 (sc), vehicle: saline with Tween-80
[7] = dose: 300.0 mg/kg/injection, schedule: Q04DX003 (sc), vehicle: saline with Tween-80
[8] = dose: 600.0 mg/kg/injection, schedule: Q04DX003 (sc), vehicle: saline with Tween-80

O=C(Nc1ccc(C2=NCCN2)cc1)c1ccc(C(=O)Nc2ccc(C3=NCCN3)cc2)c(Cl)c1
T/C (dose: 12.5 mg/kg/injection, schedule: Q01DX010 (sc), vehicle: water): 74 % of control | T/C (dose: 25.0 mg/kg/injection, schedule: Q01DX010 (sc), vehicle: water): 71 % of control | T/C (dose: 50.0 mg/kg/injection, schedule: Q01DX010 (sc), vehicle: water): 34 % of control

Nc1cc(Cl)c2[nH]cnc2n1
T/C (dose: 200.0 mg/kg/injection, schedule: Q04DX003 (sc), vehicle: water): 121 % of control | T/C (dose: 400.0 mg/kg/injection, schedule: Q04DX003 (sc), vehicle: water): 94 % of control

O=C(O)c1c2c(nc3ccccc13)Cc1ccccc1-2
T/C (dose: 100.0 mg/kg/injection, schedule: Q01DX010 (sc), vehicle: water): 39 % of control | T/C (dose: 200.0 mg/kg/injection, schedule: Q01DX010 (sc), vehicle: water): 33 % of control

Nc1ncn(C2OC(CO)C(O)C2O)c(=O)n1 (stereo unspecified)
T/C (dose: 0.19 mg/kg/injection, schedule: Q01DX010 (sc), vehicle: saline): 164 % of control | T/C (dose: 0.75 mg/kg/injection, schedule: Q01DX010 (sc), vehicle: saline): 40 % of control | T/C (dose: 10.0 mg/kg/injection, schedule: Q04DX003 (sc), vehicle: saline): 101 % of control | T/C (dose: 20.0 mg/kg/injection, schedule: Q04DX003 (sc), vehicle: saline): 52 % of control | T/C (dose: 100.0 mg/kg/injection, schedule: Q04DX003 (sc), vehicle: saline): 86 % of control | T/C (dose: 200.0 mg/kg/injection, schedule: Q04DX003 (sc), vehicle: saline): 64 % of control | T/C (dose: 200.0 mg/kg/injection, schedule: Q04DX003 (sc), vehicle: suspension in saline): 45 % of control | T/C (dose: 400.0 mg/kg/injection, schedule: Q04DX003 (sc), vehicle: saline): 35 % of control | T/C (dose: 800.0 mg/kg/injection, schedule: Q04DX003 (sc), vehicle: saline): 16 % of control | T/C (dose: 800.0 mg/kg/injection, schedule: Q04DX003 (sc), vehicle: suspension in saline): 19 % of control and 28 % of control | T/C (dose: 1228.8 mg/kg/injection, schedule: Q04DX003 (sc), vehicle: suspension in saline): -72 % of control | T/C (dose: 1600.0 mg/kg/injection, schedule: Q04DX003 (sc), vehicle: suspension in saline): 12 % of control and 14 % of control | T/C (dose: 1920.0 mg/kg/injection, schedule: Q04DX003 (sc), vehicle: suspension in saline): -100 % of control | T/C (dose: 2400.0 mg/kg/injection, schedule: Q04DX003 (sc), vehicle: suspension in saline): -100 % of control

C1CCC2[N-]CC3CCCCC3[N-]CC3CCCCC3[N-]CC3CCCCC3[N-]CC2C1.[Cu] (stereo unspecified)
T/C [1]: 100 % of control | T/C [2]: 87 % of control | T/C [3]: 51 % of control

C=C1C(=O)OCC2C(C(=O)O)=CC3C(C)C(C)=CC123 (stereo unspecified)
T/C (dose: 3.13 mg/kg/injection, schedule: Q01DX010 (sc), vehicle: Klucel (hydroxypropylcellulose) (HPC)): 56 % of control | T/C [1]: 109 % of control | T/C [2]: 78 % of control | T/C [3]: 165 % of control

CC[C@@]1(O)C[C@H](OC2CC(N(C)C)C(OC3CC(O)C(OC4CCC(=O)C(C)O4)C(C)O3)C(C)O2)c2c(cc3c(c2O)C(=O)c2c(O)cccc2C3=O)[C@H]1C(=O)OC (stereo partly specified)
T/C (dose: 0.5 mg/kg/injection, schedule: Q01DX010 (sc), vehicle: water): 105 % of control | T/C (dose: 1.0 mg/kg/injection, schedule: Q01DX010 (sc), vehicle: water): 69 % of control | T/C (dose: 1.66 mg/kg/injection, schedule: Q04DX003 (ip), vehicle: water): 24 % of control | T/C (dose: 2.0 mg/kg/injection, schedule: Q01DX010 (sc), vehicle: water): 83 % of control | T/C (dose: 3.33 mg/kg/injection, schedule: Q04DX003 (ip), vehicle: water): 22 % of control

O=CN(SSN(C=O)C1CCCCC1)C1CCCCC1
T/C [4]: 395 % of control | T/C [5]: 104 % of control | T/C [6]: 234 % of control | T/C (dose: 400.0 mg/kg/injection, schedule: Q01DX010 (sc), vehicle: saline with Tween-80): 97 % of control and 122 % of control | T/C (dose: 800.0 mg/kg/injection, schedule: Q01DX010 (sc), vehicle: saline with Tween-80): 48 % of control | T/C (dose: 1600.0 mg/kg/injection, schedule: Q01DX010 (sc), vehicle: saline with Tween-80): 54 % of control

CO[C@@]12[C@H](COC(N)=O)C3=C(C(=O)C(C)=C(N)C3=O)N1C[C@@H]1N[C@@H]12
T/C (dose: 0.63 mg/kg/injection, schedule: Q04DX003 (sc), vehicle: saline): 98 % of control | T/C (dose: 1.25 mg/kg/injection, schedule: Q04DX003 (sc), vehicle: saline): 32 % of control and 40 % of control and 42 % of control | T/C (dose: 1.5 mg/kg/injection, schedule: Q04DX003 (sc), vehicle: saline): 42 % of control | T/C (dose: 3.0 mg/kg/injection, schedule: Q04DX003 (sc), vehicle: saline): 14 % of control and 16 % of control (2×) | T/C (dose: 3.0 mg/kg/injection, schedule: Q04DX003 (sc), vehicle: suspension in saline): 3 % of control | T/C (dose: 6.0 mg/kg/injection, schedule: Q04DX003 (sc), vehicle: suspension in saline): -55 % of control | T/C (dose: 12.0 mg/kg/injection, schedule: Q04DX003 (sc), vehicle: saline): -76 % of control

NC(Cc1ccc(N(CCCl)CCCl)cc1)C(=O)O (stereo unspecified)
T/C (dose: 2.5 mg/kg/injection, schedule: Q04DX003 (sc), vehicle: Klucel (hydroxypropylcellulose) (HPC)): 75 % of control | T/C (dose: 5.0 mg/kg/injection, schedule: Q04DX003 (sc), vehicle: Klucel (hydroxypropylcellulose) (HPC)): 105 % of control | T/C (dose: 40.0 mg/kg/injection, schedule: Q04DX003 (sc), vehicle: Klucel (hydroxypropylcellulose) (HPC)): 22 % of control

O=C1[C@H]2CCC[C@H]2[C@H]2CCC[C@@H]12
T/C (dose: 200.0 mg/kg/injection, schedule: Q04DX003 (sc), vehicle: saline with Tween-80): 166 % of control | T/C (dose: 800.0 mg/kg/injection, schedule: Q04DX003 (sc), vehicle: saline with Tween-80): 120 % of control | T/C (dose: 1600.0 mg/kg/injection, schedule: Q04DX003 (sc), vehicle: saline with Tween-80): 98 % of control

O=Cc1ccc([N+](=O)[O-])s1
T/C (dose: 25.0 mg/kg/injection, schedule: Q01DX010 (sc), vehicle: saline with Tween-80): 94 % of control | T/C [4]: 105 % of control | T/C [5]: 81 % of control | T/C [6]: 30 % of control

CC(C)(C)c1ccc(CN2CCN(C(c3ccccc3)c3ccc(Cl)cc3)CC2)cc1 (stereo unspecified)
T/C (dose: 37.5 mg/kg/injection, schedule: Q04DX003 (sc), vehicle: Klucel (hydroxypropylcellulose) (HPC)): 79 % of control | T/C (dose: 75.0 mg/kg/injection, schedule: Q04DX003 (sc), vehicle: Klucel (hydroxypropylcellulose) (HPC)): 63 % of control | T/C (dose: 150.0 mg/kg/injection, schedule: Q04DX003 (sc), vehicle: Klucel (hydroxypropylcellulose) (HPC)): 71 % of control | T/C (dose: 600.0 mg/kg/injection, schedule: Q04DX003 (sc), vehicle: Klucel (hydroxypropylcellulose) (HPC)): 63 % of control | T/C (dose: 1200.0 mg/kg/injection, schedule: Q04DX003 (sc), vehicle: Klucel (hydroxypropylcellulose) (HPC)): 78 % of control | T/C (dose: 2400.0 mg/kg/injection, schedule: Q04DX003 (sc), vehicle: Klucel (hydroxypropylcellulose) (HPC)): 62 % of control

O=C1C=CN(C2OC(CO)C(O)C2O)C(=O)C1 (stereo unspecified)
T/C (dose: 50.0 mg/kg/injection, schedule: Q01DX010 (sc), vehicle: saline): 65 % of control | T/C (dose: 100.0 mg/kg/injection, schedule: Q01DX010 (sc), vehicle: saline): 21 % of control

O=C(Nc1nncs1)c1cccs1
T/C [7]: 119 % of control | T/C [8]: 85 % of control | T/C (dose: 1200.0 mg/kg/injection, schedule: Q04DX003 (sc), vehicle: saline with Tween-80): 120 % of control

CCCCc1ccc(-n2c(C)c(COC(=O)NC)c(COC(=O)NC)c2C)cc1
T/C [2]: 111 % of control | T/C [3]: 92 % of control | T/C (dose: 50.0 mg/kg/injection, schedule: Q01DX010 (sc), vehicle: Klucel (hydroxypropylcellulose) (HPC)): 100 % of control | T/C (dose: 100.0 mg/kg/injection, schedule: Q01DX010 (sc), vehicle: Klucel (hydroxypropylcellulose) (HPC)): 104 % of control

CC(=O)Nc1ccc(O)c(O)c1
T/C [7]: 154 % of control | T/C [8]: 103 % of control | T/C (dose: 2400.0 mg/kg/injection, schedule: Q04DX003 (sc), vehicle: saline with Tween-80): 51 % of control

Cc1c2cc[n+](CCN3CCCCC3)cc2c(C)c2c1[nH]c1ccc(O)cc12
T/C (dose: 50.0 mg/kg/injection, schedule: Q04DX003 (sc), vehicle: suspension in saline): 83 % of control | T/C (dose: 100.0 mg/kg/injection, schedule: Q04DX003 (sc), vehicle: suspension in saline): 68 % of control

Reference: PubChem BioAssay AID264 (DTP/NCI, 2004)
